# How the values were obtained:
# Test in all cases: pTyr-Var library bacterial peptide display kinase screen (enrichment scores)
# c-Src kinase domain = c-Src kinase domain (Homo sapiens, UniProt P12931); type: biochemical; settings: sheet "Src";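 further: log2 fold change in enrichment of variant over reference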
# EPHB2 kinase domain = type: biochemical, human; settings: sheet EPHB2
# c-Abl kinase domain = biological target: T1, c-Abl kinase domain (Mus musculus, UniProt P00520); type: biochemical;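 further: log2 fold change in enrichment of variant over reference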
# T1 sequence (P00520 242-493 limits assumed): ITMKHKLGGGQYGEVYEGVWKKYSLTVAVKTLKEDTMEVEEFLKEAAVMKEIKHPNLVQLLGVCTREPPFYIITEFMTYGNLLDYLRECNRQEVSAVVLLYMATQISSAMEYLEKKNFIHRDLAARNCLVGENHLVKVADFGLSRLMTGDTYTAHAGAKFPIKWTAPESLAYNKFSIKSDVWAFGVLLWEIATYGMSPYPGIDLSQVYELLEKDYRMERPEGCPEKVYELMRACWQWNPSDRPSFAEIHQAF
# Fer kinase domain = type: biochemical, mouse; settings: sheet "Fer"
# EPHB1 kinase domain = type: biochemical, human; settings: for Screen (variant relative to reference peptide, measured in the pTyr-Var library screen): sheet "EPHB1", variant seq vs reference seq, bacterial peptide display enrichment; for Screen: sheet EPHB1, effect of the variant peptide relative to its reference peptide in the pTyr-Var library screen (enrichment scores)
# [1] = variant peptide versus its reference peptide in the pTyr-Var library screen
# [2] = effect of variant peptide relative to its reference peptide in the pTyr-Var library screen (enrichment scores)
# [3] = effect of the variant peptide relative to its reference peptide in the pTyr-Var library screen
# [4] = sheet "Abl", effect of variant peptide relative to its reference peptide in pTyr-Var library screen (enrichment)
# [5] = variant peptide relative to its reference peptide, pTyr-Var library screen enrichment
# [6] = effect of the variant relative to its reference peptide in the pTyr-Var library screen
# [7] = fig5-data2, sheet "Abl", Screen for the variant/reference peptide pair, pTyr-Var library
# [8] = value of the variant peptide against its reference peptide in the pTyr-Var library screen with Fer
Substance,Screen (c-Src kinase domain; [1]),Screen (EPHB2 kinase domain; [2]),Screen (c-Src kinase domain; [3]),Screen (EPHB1 kinase domain),Screen (Fer kinase domain; [8]),also measured
ADARMYGVHPW [PLP1_Y207_L210H],-0.8602,-2.321,–,–,–,–
ADRLEYSRTGL [MMUT_Y287_G284R],–,-0.9943,–,–,–,–
"Ac-IGEGTYRTVFK-NH2 [CDK5_Y15_G16R, pTyr-Var library variant phosphosite peptide]",–,-2.132,-3.502,–,–,–
CEQELYSQLVF [WAS_Y102_W97C_YF],-0.1333,–,–,–,–,"Screen (c-Abl kinase domain; [4]): -3.187; Screen (Fer kinase domain; [5]): -0.3985; Screen (variant relative to reference peptide, measured in the pTyr-Var library screen) (EPHB1 kinase domain): -2.23; Screen (EPHB2 kinase domain; [6]): -2.338"
DDFDLYGGEKF [PTPN11_Y66_Y62D_YF],-0.3825,–,–,–,–,Screen (c-Abl kinase domain; [7]): -0.3703; Screen (Fer kinase domain; [5]): 1.351
DLHGIYQKLVI [TTN_Y21998_R21995H],0.02812,–,–,–,–,"Screen (c-Abl kinase domain; [4]): -2.013; Screen (Fer kinase domain; [5]): 0.5861; Screen (variant relative to reference peptide, measured in the pTyr-Var library screen) (EPHB1 kinase domain): 1.244; Screen (EPHB2 kinase domain; [6]): 1.178"
EPFELYCEMGS [CBL_Y371_Q367P_YF],–,-0.2507,–,-0.3443,–,–
FAELVYTVFWH [ASS1_Y322_G324V],–,0.0379,0.03298,0.03348,-0.2764,–
FCRHNYGAVES [HLA-DRB1_Y112_V114A_YF],–,-2.259,–,–,–,–
FGSIMYEFVGK [SLC18A1_Y251_V249I],-1.273,-1.759,–,–,–,"Screen (Fer kinase domain; [5]): -0.674; Screen (variant relative to reference peptide, measured in the pTyr-Var library screen) (EPHB1 kinase domain): -1.716"
GNLLIYTEFGN [HGD_Y166_K171N],–,0.7326,-0.3322,0.6139,–,–
HAVFIYDICHV [TWNK_Y508_V507I_YF],-0.8811,–,–,–,–,"Screen (Fer kinase domain; [5]): 0.388; Screen (variant relative to reference peptide, measured in the pTyr-Var library screen) (EPHB1 kinase domain): 1.032; Screen (EPHB2 kinase domain; [6]): 1.461"
HKDNNYISMWF [PAPOLG_Y432_V433I],–,-1.118,–,-1.294,-1.378,–
IMNLLYHVVGW [GBA_Y412_T408M],–,-0.4774,0.1521,-0.2669,-0.4668,–
ISKTWYSAEQF [CD207_Y217_P213S],–,-0.7343,–,-0.7306,–,–
KAPPTYDNVLQ [CYP3A4_Y347_T349N],–,-1.141,–,-0.1539,-0.1979,–
KELALYDENWF [RPS19_Y48_P47L],–,4.277,–,4.03,–,Screen (Fer kinase domain; [5]): 3.889
KKHIPYSEHKS [CSNK1G2_Y206_R207S],–,–,–,-1.865,-1.379,–
LDAFIYNAAVL [GRIN2A_Y730_D731N],–,-1.324,-1.489,-1.471,-3.433,–
LDVGEYCVPRG [BEX1_Y43_A40V],–,-0.4602,–,-0.3957,–,–
LGNIVYSSLCG [BCOR_Y90_P85L],–,–,0.02175,–,0.7069,–

Substance,Screen (c-Src kinase domain; [1]),Screen (EPHB2 kinase domain; [2]),Screen (c-Src kinase domain; [3]),Screen (EPHB1 kinase domain),Screen (Fer kinase domain; [8]),also measured
LNPFIYSLRNC [OR1A2_Y288_W293C],-0.4787,–,–,-1.104,-1.075,–
LPHVIYCRLWC [SMAD2_Y128_R133C],1.251,1.893,–,–,–,"Screen (variant relative to reference peptide, measured in the pTyr-Var library screen) (EPHB1 kinase domain): 2.05"
LTERGYSFTTK [ACTG1_Y198_T203K],–,1.886,–,1.554,1.86,–
MARDIYQASFF [LTK_Y672_R673Q_YF],–,1.961,3.363,2.318,3.102,–
MSSLFYANALF [HOXB7_Y6_T9A_YF],–,–,–,–,-0.9977,Screen (c-Abl kinase domain; [7]): 1.131
NSNSDYVDILP [SH2D1B_Y127_V130I],–,0.0762,–,–,–,"Screen (variant relative to reference peptide, measured in the pTyr-Var library screen) (EPHB1 kinase domain): -0.2012"
PLDGEYFILQI [TP53_Y327_T329I],-0.4119,–,–,–,–,"Screen (variant relative to reference peptide, measured in the pTyr-Var library screen) (EPHB1 kinase domain): 0.4645; Screen (EPHB2 kinase domain; [6]): 0.5203"
PLDGEYFTLPI [TP53_Y327_Q331P],1.231,–,–,–,–,"Screen (Fer kinase domain; [5]): 0.4845; Screen (variant relative to reference peptide, measured in the pTyr-Var library screen) (EPHB1 kinase domain): 3.664; Screen (EPHB2 kinase domain; [6]): 3.847"
PLFGEYFTLQI [TP53_Y327_D324Y_YF],1.11,–,–,–,–,"Screen (variant relative to reference peptide, measured in the pTyr-Var library screen) (EPHB1 kinase domain): 1.054; Screen (EPHB2 kinase domain; [6]): 0.9055"
PNKAVYTKMMT [G6PD_Y401_E398K],–,–,-2.964,–,-3.207,–
PSAELYSFALP [PDGFRB_Y716_N718Y_YF],2.409,2.567,–,2.14,1.182,–
QNTGFYFDLFG [PTPN11_Y62_D61Y_YF],-1.182,-4.029,–,-3.875,–,–
QTPVLYAMLFH [MPZ_Y220_D224Y_YF],–,-1.088,-0.1434,-0.7178,-0.58,–
REGKIYEFNQV [ZNF665_Y162_H157R_YF],–,–,–,–,–,"Screen (c-Src kinase domain; effect of the variant peptide against its reference peptide, seen in the pTyr-Var library screen): -1.072; Screen (c-Abl kinase domain; [4]): -1.605; Screen (Fer kinase domain; [5]): -0.7739"
SDPIIYTLENV [ADGRE1_Y534_I539V],–,–,-0.05563,–,-0.559,–
SMEGLYSSAQD [CLIC5_Y111_T114A],–,-0.2512,0.03653,-0.2291,0.3754,–
SNKELYEKFMI [TTN_Y32175_T32171N_YF],0.8077,–,–,–,–,Screen (Fer kinase domain; [5]): 0.5633
TESALYGCTVV [KIAA1804_Y724_L729V],–,–,-0.09726,–,0.07488,–
TSSAVYMNLAS [GATAD2B_Y317_I316V],–,-2.447,-0.9997,-2.461,-2.177,–
VATRWYWSPEL [CDKL5_Y177_R178W],–,2.978,–,3.423,–,–
